From BigSolDB 2.1

C=CC(=O)NC(C)(C)CC(C)=O
solubility (mole fraction) (in 2-butanone, 272.05 K): 0.229
solubility (mole fraction) (in 2-butanone, 278.25 K): 0.276
solubility (mole fraction) (in 2-butanone, 283.25 K): 0.321
solubility (mole fraction) (in 2-butanone, 288.45 K): 0.373
solubility (mole fraction) (in 2-butanone, 293.35 K): 0.424
solubility (mole fraction) (in 2-butanone, 298.15 K): 0.484
solubility (mole fraction) (in 2-butanone, 303.25 K): 0.551
solubility (mole fraction) (in 2-butanone, 308.15 K): 0.623
solubility (mole fraction) (in 2-butanone, 313.15 K): 0.704
solubility (mole fraction) (in 2-butanone, 318.15 K): 0.79
solubility (mole fraction) (in 2-butanone, 323.15 K): 0.88
solubility (mole fraction) (in 2-pentanone, 272.05 K): 0.2
solubility (mole fraction) (in 2-pentanone, 278.25 K): 0.245
solubility (mole fraction) (in 2-pentanone, 283.25 K): 0.285
solubility (mole fraction) (in 2-pentanone, 288.45 K): 0.334
solubility (mole fraction) (in 2-pentanone, 293.35 K): 0.385
solubility (mole fraction) (in 2-pentanone, 298.15 K): 0.442
solubility (mole fraction) (in 2-pentanone, 303.25 K): 0.509
solubility (mole fraction) (in 2-pentanone, 308.15 K): 0.581
solubility (mole fraction) (in 2-pentanone, 313.15 K): 0.658
solubility (mole fraction) (in 2-pentanone, 318.15 K): 0.747
solubility (mole fraction) (in 2-pentanone, 323.15 K): 0.844
solubility (mole fraction) (in acetone, 272.05 K): 0.207
solubility (mole fraction) (in acetone, 278.25 K): 0.252
solubility (mole fraction) (in acetone, 283.25 K): 0.294
solubility (mole fraction) (in acetone, 288.45 K): 0.342
solubility (mole fraction) (in acetone, 293.35 K): 0.394
solubility (mole fraction) (in acetone, 298.15 K): 0.45
solubility (mole fraction) (in acetone, 303.25 K): 0.515
solubility (mole fraction) (in acetone, 308.15 K): 0.584
solubility (mole fraction) (in acetone, 313.15 K): 0.66
solubility (mole fraction) (in acetone, 318.15 K): 0.746
solubility (mole fraction) (in acetone, 323.15 K): 0.839
solubility (mole fraction) (in ethanol, 272.15 K): 0.186
solubility (mole fraction) (in ethanol, 278.25 K): 0.231
solubility (mole fraction) (in ethanol, 283.15 K): 0.271
solubility (mole fraction) (in ethanol, 288.15 K): 0.318
solubility (mole fraction) (in ethanol, 293.35 K): 0.374
solubility (mole fraction) (in ethanol, 297.65 K): 0.427
solubility (mole fraction) (in ethanol, 303.15 K): 0.5
solubility (mole fraction) (in ethanol, 308.15 K): 0.576
solubility (mole fraction) (in ethanol, 313.65 K): 0.671
solubility (mole fraction) (in ethanol, 318.85 K): 0.767
solubility (mole fraction) (in ethanol, 323.65 K): 0.867
solubility (mole fraction) (in ethyl acetate, 272.05 K): 0.166
solubility (mole fraction) (in ethyl acetate, 278.25 K): 0.208
solubility (mole fraction) (in ethyl acetate, 283.25 K): 0.249
solubility (mole fraction) (in ethyl acetate, 288.45 K): 0.299
solubility (mole fraction) (in ethyl acetate, 293.35 K): 0.351
solubility (mole fraction) (in ethyl acetate, 298.15 K): 0.411
solubility (mole fraction) (in ethyl acetate, 303.25 K): 0.481
solubility (mole fraction) (in ethyl acetate, 308.15 K): 0.558
solubility (mole fraction) (in ethyl acetate, 313.15 K): 0.645
solubility (mole fraction) (in ethyl acetate, 318.15 K): 0.745
solubility (mole fraction) (in ethyl acetate, 323.15 K): 0.85
solubility (mole fraction) (in ethyl formate, 272.05 K): 0.186
solubility (mole fraction) (in ethyl formate, 278.25 K): 0.23
solubility (mole fraction) (in ethyl formate, 283.25 K): 0.271
solubility (mole fraction) (in ethyl formate, 288.45 K): 0.321
solubility (mole fraction) (in ethyl formate, 293.35 K): 0.376
solubility (mole fraction) (in ethyl formate, 298.15 K): 0.435
solubility (mole fraction) (in ethyl formate, 303.25 K): 0.506
solubility (mole fraction) (in ethyl formate, 308.15 K): 0.575
solubility (mole fraction) (in ethyl formate, 313.15 K): 0.659
solubility (mole fraction) (in ethyl formate, 318.15 K): 0.754
solubility (mole fraction) (in ethyl formate, 323.15 K): 0.859
solubility (mole fraction) (in isobutanol, 272.05 K): 0.212
solubility (mole fraction) (in isobutanol, 278.25 K): 0.258
solubility (mole fraction) (in isobutanol, 283.25 K): 0.301
solubility (mole fraction) (in isobutanol, 288.45 K): 0.351
solubility (mole fraction) (in isobutanol, 293.35 K): 0.403
solubility (mole fraction) (in isobutanol, 298.15 K): 0.462
solubility (mole fraction) (in isobutanol, 303.25 K): 0.529
solubility (mole fraction) (in isobutanol, 308.15 K): 0.601
solubility (mole fraction) (in isobutanol, 313.15 K): 0.68
solubility (mole fraction) (in isobutanol, 318.15 K): 0.767
solubility (mole fraction) (in isobutanol, 323.15 K): 0.866
solubility (mole fraction) (in isopentanol, 272.15 K): 0.154
solubility (mole fraction) (in isopentanol, 278.25 K): 0.197
solubility (mole fraction) (in isopentanol, 283.15 K): 0.24
solubility (mole fraction) (in isopentanol, 288.15 K): 0.29
solubility (mole fraction) (in isopentanol, 293.35 K): 0.352
solubility (mole fraction) (in isopentanol, 297.65 K): 0.411
solubility (mole fraction) (in isopentanol, 303.15 K): 0.495
solubility (mole fraction) (in isopentanol, 308.15 K): 0.585
solubility (mole fraction) (in isopentanol, 313.65 K): 0.7
solubility (mole fraction) (in isopentanol, 318.85 K): 0.82
solubility (mole fraction) (in isopentanol, 323.65 K): 0.955
solubility (mole fraction) (in isopropanol, 272.15 K): 0.155
solubility (mole fraction) (in isopropanol, 278.25 K): 0.197
solubility (mole fraction) (in isopropanol, 283.15 K): 0.238
solubility (mole fraction) (in isopropanol, 288.15 K): 0.286
solubility (mole fraction) (in isopropanol, 293.35 K): 0.343
solubility (mole fraction) (in isopropanol, 297.65 K): 0.398
solubility (mole fraction) (in isopropanol, 303.15 K): 0.479
solubility (mole fraction) (in isopropanol, 308.15 K): 0.562
solubility (mole fraction) (in isopropanol, 313.65 K): 0.667
solubility (mole fraction) (in isopropanol, 318.85 K): 0.777
solubility (mole fraction) (in isopropanol, 323.65 K): 0.898
solubility (mole fraction) (in methanol, 272.15 K): 0.241
solubility (mole fraction) (in methanol, 278.25 K): 0.287
solubility (mole fraction) (in methanol, 283.15 K): 0.327
solubility (mole fraction) (in methanol, 288.15 K): 0.371
solubility (mole fraction) (in methanol, 293.35 K): 0.422
solubility (mole fraction) (in methanol, 297.65 K): 0.468
solubility (mole fraction) (in methanol, 303.15 K): 0.531
solubility (mole fraction) (in methanol, 308.15 K): 0.594
solubility (mole fraction) (in methanol, 313.65 K): 0.667
solubility (mole fraction) (in methanol, 318.85 K): 0.746
solubility (mole fraction) (in methanol, 323.65 K): 0.823
solubility (mole fraction) (in methyl acetate, 272.05 K): 0.206
solubility (mole fraction) (in methyl acetate, 278.25 K): 0.253
solubility (mole fraction) (in methyl acetate, 283.25 K): 0.294
solubility (mole fraction) (in methyl acetate, 288.45 K): 0.343
solubility (mole fraction) (in methyl acetate, 293.35 K): 0.399
solubility (mole fraction) (in methyl acetate, 298.15 K): 0.455
solubility (mole fraction) (in methyl acetate, 303.25 K): 0.526
solubility (mole fraction) (in methyl acetate, 308.15 K): 0.6
solubility (mole fraction) (in methyl acetate, 313.15 K): 0.68
solubility (mole fraction) (in methyl acetate, 318.15 K): 0.769
solubility (mole fraction) (in methyl acetate, 323.15 K): 0.869
solubility (mole fraction) (in n-butanol, 272.15 K): 0.169
solubility (mole fraction) (in n-butanol, 278.25 K): 0.213
solubility (mole fraction) (in n-butanol, 283.15 K): 0.253
solubility (mole fraction) (in n-butanol, 288.15 K): 0.303
solubility (mole fraction) (in n-butanol, 293.35 K): 0.362
solubility (mole fraction) (in n-butanol, 297.65 K): 0.417
solubility (mole fraction) (in n-butanol, 303.15 K): 0.496
solubility (mole fraction) (in n-butanol, 308.15 K): 0.579
solubility (mole fraction) (in n-butanol, 313.65 K): 0.681
solubility (mole fraction) (in n-butanol, 318.85 K): 0.793
solubility (mole fraction) (in n-butanol, 323.65 K): 0.908
solubility (mole fraction) (in n-hexanol, 272.15 K): 0.151
solubility (mole fraction) (in n-hexanol, 278.25 K): 0.194
solubility (mole fraction) (in n-hexanol, 283.15 K): 0.236
solubility (mole fraction) (in n-hexanol, 288.15 K): 0.286
solubility (mole fraction) (in n-hexanol, 293.35 K): 0.346
solubility (mole fraction) (in n-hexanol, 297.65 K): 0.406
solubility (mole fraction) (in n-hexanol, 303.15 K): 0.491
solubility (mole fraction) (in n-hexanol, 308.15 K): 0.581
solubility (mole fraction) (in n-hexanol, 313.65 K): 0.696
solubility (mole fraction) (in n-hexanol, 318.85 K): 0.82
solubility (mole fraction) (in n-hexanol, 323.65 K): 0.953
solubility (mole fraction) (in n-pentanol, 272.15 K): 0.148
solubility (mole fraction) (in n-pentanol, 278.25 K): 0.189
solubility (mole fraction) (in n-pentanol, 283.15 K): 0.229
solubility (mole fraction) (in n-pentanol, 288.15 K): 0.276
solubility (mole fraction) (in n-pentanol, 293.35 K): 0.336
solubility (mole fraction) (in n-pentanol, 297.65 K): 0.391
solubility (mole fraction) (in n-pentanol, 303.15 K): 0.469
solubility (mole fraction) (in n-pentanol, 308.15 K): 0.553
solubility (mole fraction) (in n-pentanol, 313.65 K): 0.66
solubility (mole fraction) (in n-pentanol, 318.85 K): 0.775
solubility (mole fraction) (in n-pentanol, 323.65 K): 0.896
solubility (mole fraction) (in n-propanol, 272.15 K): 0.18
solubility (mole fraction) (in n-propanol, 278.25 K): 0.226
solubility (mole fraction) (in n-propanol, 283.15 K): 0.269
solubility (mole fraction) (in n-propanol, 288.15 K): 0.32
solubility (mole fraction) (in n-propanol, 293.35 K): 0.381
solubility (mole fraction) (in n-propanol, 297.65 K): 0.437
solubility (mole fraction) (in n-propanol, 303.15 K): 0.52
solubility (mole fraction) (in n-propanol, 308.15 K): 0.605
solubility (mole fraction) (in n-propanol, 313.65 K): 0.71
solubility (mole fraction) (in n-propanol, 318.85 K): 0.819
solubility (mole fraction) (in n-propanol, 323.65 K): 0.937
